{
  "source": "patent US20100222282A1",
  "about": "“METHOD OF DIAGNOSIS AND METHOD OF TREATMENT” (ENTRESS AB, priority 2006, published 2010)",
  "key": {"[1]": {"test_system": "Sprague-Dawley rats (2-3 years old)", "settings": "experimental groups, 8 weeks", "description": "(§1) The aim of this experiment was to study the relationship between the blood level of AKG and survival of elderly rats. Forty Sprague-Dawley rats randomly chosen (2-3 years old) from the Department of Cell & Organisms Biology in Lund University were used in the experiment. The rats were divided into four groups, 10 rats each, two control groups and two experiment groups. […] The mixtures were titrated with 0.01 M NaOH to correct the pH.\n(§2) Blood samples were taken at the beginning of the experiment from all rats and blood AKG levels were estimated. Experimental time was 8 weeks and parameters as AKG blood levels and survival were monitored."}, "[2]": {"settings": "rats of the experimental groups", "description": "as §1, §2"}},
  "data": [
    {"smiles": "O=C([O-])CCC(=O)C(=O)[O-].[Na+].[Na+]", "note": "[Na2AKG * 2H2O, sodium alpha-ketoglutarate]", "values": [
      {"measurement": "Survival of rats with initially low blood AKG (under 0.1 μg/ml)", "setting": "[1]", "result": "did survive the whole experiment"},
      {"measurement": "Blood levels of AKG after oral feeding", "setting": "[2]", "result": "over 0.5 μg/ml"}
    ]}
  ]
}
